Experiments:
Cholinesterase = Cholinesterase (Homo sapiens, UniProt P06276)
Description: Inhibition of human serum recombinant BChE by Ellman's method

Acetylcholinesterase = Acetylcholinesterase (Homo sapiens, UniProt P22303)
Description: Inhibition of human serum recombinant AChE by Ellman's method

[1] = Inhibition of human AChE-induced amyloid-beta (1-40) aggregation by thioflavin T fluorescene method

Cholinesterase, sequence (P06276 whole entry): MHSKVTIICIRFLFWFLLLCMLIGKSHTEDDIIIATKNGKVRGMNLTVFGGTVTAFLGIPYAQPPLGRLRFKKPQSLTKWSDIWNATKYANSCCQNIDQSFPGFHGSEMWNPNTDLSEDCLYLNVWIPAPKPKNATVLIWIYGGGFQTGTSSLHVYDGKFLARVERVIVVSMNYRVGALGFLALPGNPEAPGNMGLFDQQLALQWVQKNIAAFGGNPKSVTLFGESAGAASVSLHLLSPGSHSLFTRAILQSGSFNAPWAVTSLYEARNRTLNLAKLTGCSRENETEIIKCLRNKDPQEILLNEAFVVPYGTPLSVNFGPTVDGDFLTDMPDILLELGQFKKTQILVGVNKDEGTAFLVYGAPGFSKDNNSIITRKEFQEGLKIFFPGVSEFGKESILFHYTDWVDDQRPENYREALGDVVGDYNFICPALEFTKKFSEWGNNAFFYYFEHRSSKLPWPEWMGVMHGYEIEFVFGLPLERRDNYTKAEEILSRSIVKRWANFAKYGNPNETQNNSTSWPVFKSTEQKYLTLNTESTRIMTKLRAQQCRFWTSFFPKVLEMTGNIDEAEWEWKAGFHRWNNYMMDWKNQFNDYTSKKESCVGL
Acetylcholinesterase, sequence (P22303 whole entry): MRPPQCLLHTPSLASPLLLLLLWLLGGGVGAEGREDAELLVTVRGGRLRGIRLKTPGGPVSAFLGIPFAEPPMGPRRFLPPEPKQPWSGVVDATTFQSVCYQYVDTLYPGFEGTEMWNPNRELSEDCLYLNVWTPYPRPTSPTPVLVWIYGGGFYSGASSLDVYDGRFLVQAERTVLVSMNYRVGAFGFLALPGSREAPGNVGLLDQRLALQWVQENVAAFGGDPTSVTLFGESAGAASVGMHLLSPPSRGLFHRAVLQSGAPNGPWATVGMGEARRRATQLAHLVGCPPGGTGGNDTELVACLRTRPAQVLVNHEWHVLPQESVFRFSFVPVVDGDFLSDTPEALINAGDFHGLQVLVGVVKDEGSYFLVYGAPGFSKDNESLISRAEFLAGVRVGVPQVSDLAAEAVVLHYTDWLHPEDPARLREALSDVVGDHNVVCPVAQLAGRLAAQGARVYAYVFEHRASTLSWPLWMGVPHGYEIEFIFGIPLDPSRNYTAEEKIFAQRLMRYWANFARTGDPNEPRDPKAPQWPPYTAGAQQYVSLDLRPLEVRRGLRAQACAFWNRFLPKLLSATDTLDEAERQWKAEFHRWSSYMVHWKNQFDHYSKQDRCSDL

Row | Structure (SMILES) | IC50 (Cholinesterase) | IC50 (Acetylcholinesterase) | IC50 [1]
1 | O=C(CCCNc1c2c(nc3ccccc13)CCCC2)CCCNc1c2c(nc3ccccc13)CCCC2 | 11.3 nM |  | 
2 | O=C(NCCNc1c2c(nc3ccccc13)CCCC2)C(=O)NCCNc1c2c(nc3ccccc13)CCCC2 | 5.44 nM | 6.65 nM | 
3 | c1ccc2c(NCCOCCOCCNc3c4c(nc5ccccc35)CCCC4)c3c(nc2c1)CCCC3 | 35.1 nM | 19.7 nM | 
4 | c1ccc2c(NCCCCCCCNc3c4c(nc5ccccc35)CCCC4)c3c(nc2c1)CCCC3 | 5.66 nM |  | 41700 nM

From ChEMBL document CHEMBL1138347, “Multi-target-directed drug design strategy: from a dual binding site acetylcholinesterase inhibitor to a trifunctional compound against Alzheimer's disease” (J Med Chem, 2007)
